Source: patent publication US6417213B2, “Tricyclic compound, their production and use” (Takeda Chemical Industries, Ltd., priority 1996, dated 2002)

Key:
[1] = target: T1, human PGI2 receptors (Homo sapiens, UniProt P43119); test: PGI2 receptor binding assay; conditions: membrane fraction of CHO cells expressing human PGI2 receptors, [3H]Iloprost 20 nM, pH 6.0, 37° C. 1 hour; read-out: IC50, inhibition of [3H]Iloprost binding to the human PGI2 receptor
T1 construct: expressed in transfected cells; host or cells: CHO cells (membrane fraction)
Method: PGI2 receptor binding assay
MES-NaOH buffer (pH 6.0) (500 μL) containing the membrane fraction (40 μg) of CHO cells caused to express human PGI2 receptors, [^3H]Iloprost (20 nM), and a test compound solution (50 μL) was incubated at 37° C. for 1 hour and then filtered through a membrane filter to separate the membrane-bound [^3H]Iloprost from the non-membrane-binding [^3H]Iloprost. The radioactivity of the membrane-bound [^3H]Iloprost was determined with a liquid scintillation counter and the binding inhibition rate in each drug treatment group was determined against the specific binding of [^3H]Iloprost to the human PGI2 receptor in the control (solvent) group.
The test compound was added at the final concentrations of 10^−6 to 10^−11 M and the IC50 values were calculated from the inhibition rates at the respective concentrations.

[2] = test system: human platelets; test: Platelet aggregation inhibition assay; type: cell-based; conditions: ADP-induced aggregation, platelet-rich plasma from healthy male adult donors, 37° C.
Method: Platelet aggregation inhibition assay
The citrated blood from healthy male adult donors was centrifuged at 1000×g for […] and 20 minutes to harvest platelet-rich plasma (PRP) and platelet-poor plasma (PPP), respectively. Then, PRP was diluted with PPP to a platelet count of 300,000/μL. The degree of platelet aggregation was measured with a platelet aggregation measuring apparatus.
In the assay cuvette, 200 μL of PRP was incubated at 37° C. for 2 minutes. Then, 20 μL of a test drug solution was added and the mixture was further incubated for 2 minutes. Thereafter, aggregation was induced by adding 20 μl of ADP solution. The aggregation in the drug treatment group was compared with the maximum aggregation in the control group to find the inhibition rate. ADP was used in the minimal concentration (2×10^−6 to 3×10^−5 M) inducing maximal aggregation in each assay.
The test compound was added at the final concentrations of 10^−3 to 10^−9 and the IC50 value was calculated from the inhibition rates at the respective concentrations.

T1 sequence (P43119 whole entry): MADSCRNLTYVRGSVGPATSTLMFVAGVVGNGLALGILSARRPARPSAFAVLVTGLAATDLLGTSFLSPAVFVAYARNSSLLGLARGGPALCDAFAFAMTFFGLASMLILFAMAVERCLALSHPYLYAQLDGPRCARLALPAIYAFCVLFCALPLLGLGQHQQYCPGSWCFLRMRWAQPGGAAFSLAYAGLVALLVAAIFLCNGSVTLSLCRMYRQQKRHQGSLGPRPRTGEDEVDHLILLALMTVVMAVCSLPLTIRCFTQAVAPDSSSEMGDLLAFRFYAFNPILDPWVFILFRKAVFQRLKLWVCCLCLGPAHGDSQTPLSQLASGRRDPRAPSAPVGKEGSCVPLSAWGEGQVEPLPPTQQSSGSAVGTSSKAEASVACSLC

Row | Structure (SMILES) | IC50 [1] [nM] | IC50 [2] [nM]
1 | O=C(O)COc1cccc2c1OCc1sc(SCC(c3ccccc3)c3ccccc3)nc1-2 [Example 12, [[2-(2,2-Diphenylethyl)thio-4H-[1]benzopyrano[4,3-d]thiazol-6-yl]oxy]acetic acid] | 61 | –
2 | O=C(O)COc1cccc2c1OCc1sc(SCCC(c3ccccc3)c3ccccc3)nc1-2 [Example 11, [[2-(3,3-Diphenylpropyl)thio-4H-[1]benzopyrano[4,3-d]thiazol-6-yl]oxy]acetate acid] | 81 | –
3 | O=C(O)COc1cccc2c1CCc1sc(SCC(c3ccccc3)c3ccccc3)nc1-2 [Example 1, [[2-(2,2-Diphenylethyl)thio-4,5-dihydronaphtho[1,2-d]thiazol-6-yl]oxy]acetic acid] | 24 | 540

Now those with a lower IC50 [1], led by results:

Row | IC50 [1] [nM] | Structure (SMILES) | IC50 [2] [nM]
4 | 21 | O=C(O)COc1cccc2c1CCc1sc(S(=O)(=O)CC(c3ccccc3)c3ccccc3)nc1-2 [Example 29, [[2-(2,2-Diphenylethyl)sulfonyl-4,5-dihydronaphtho[1,2-d]thiazol-6-yl]oxy]acetic acid] | –
5 | 2 | O=C(O)COc1cccc2c1CCc1sc(SC(c3ccccc3)c3ccccc3)nc1-2 [Example 21, [(2-Diphenylmethylthio-4,5-dihydronaphtho[1,2-d]thiazol-6-yl)oxy]acetic acid] | 210
